Converted amounts (≈) assume the structure as drawn.
Key:
[1] = In vitro cytotoxicity, Sulforhodamine B (SRB) assay; type: cell-based, human; conditions: human, range 80 to 0.55 μg/mL
From the text: (§1) Toxicity scrutiny of synthesized compounds at the early phase of research paves the way to clinical trials and reduces the failure of potential therapeutics at later stages of clinical trials. To scrutinize the safety and selectivity of antimicrobial activity of the synthesized compounds, the compounds 6c and 6f were appraised for their toxicity against HeLa (a human cervical cancer cell line) and PC-3 (human prostate cancer cell line) by the Sulforhodamine B (SRB) assay using adriamycin as a standard drug.
(§2) The images were captured using an Eclipse Ti-S Inverted Research Microscope (Nikon, Tokyo, Japan). Image processing software used was NIS-Elements.

DdlB from E.coli = DdlB from E.coli (Escherichia coli, UniProt P07862); test: D-Alanine-D-alanine ligase (DdlB) enzyme inhibition, malachite green method; type: biochemical; conditions: 37 °C, 30 min incubation, 5% DMSO
Method: The key enzyme involved in the peptidoglycan biosynthesis is D-alanine-D-alanine ligase (Ddl), making it an important target for drug discovery. Inhibition of DdlB as an essential enzyme in either Gram-positive or Gram-negative organisms leads to the loss of cell shape and integrity followed by bacterial death. The synthesized derivatives 4(a–f) and 6(a–f) were tested for their inhibitory activity on DdlB from E.coli. The results are presented as IC50 values.
The D-Ala-adding activity of DdlB ligase was monitored by the detection of orthophosphate generated during the reaction based on the colorimetric malachite green method described by Walsh et al.. […] All the compounds were soluble in the assay mixture containing 5% DMSO. After 30 min of incubation, 100 µL Biomol reagent was added. After 5 min, absorbance was read at 650 nm. Residual activity was calculated with respect to a similar assay without inhibitor. To exclude possible non-specific (promiscuous) inhibitors, representative compounds 4(a–f) and 6(a–f) were also tested in the presence of Tween (0.003%), Triton X-114 (0.005%), and SDS (420 µM), as described by McGovern et al.. No significant differences were found when compared to measurements without detergents.

Escherichia coli 1411 = test: In vitro antibacterial activity (MIC100, two fold serial dilution, NCCLS); type: cell-based; conditions: Escherichia coli, 1411, 24 h, read-out: MIC100
Method: (§3) All the synthesized compounds 4(a–f) and 6(a–f) were screened for their in vitro antibacterial activity against Staphylococcus aureus (NCIM-2901), Escherichia coli 1411 (standard laboratory strains) and Escherichia coli SM1411 (an acrAB deficient derivative of 1411). Minimum inhibitory concentration (MIC100) values were determined using methods recommended by National Committee for Clinical Laboratory Standards (NCCLS). Dimethyl sulfoxide (DMSO) was used as solvent control.
(§4) All the synthesized compounds 4(a–f) and 6(a–f) were screened for their in vitro antibacterial activity against Staphylococcus aureus (NCIM-2901) and Escherichia coli 1411 (standard laboratory strains) and Escherichia coli SM1411 (an acrAB deficient derivative of 1411). Minimum inhibitory concentration (MIC100) values were determined using the method recommended by National Committee for Clinical Laboratory Standards (NCCLS). In vitro antibacterial activities of the synthesized compounds 4(a–f) and 6(a–f) were tested in Nutrient Broth (NB) for Bacteria by the two fold serial dilution method. Seeded broth (broth containing microbial spores) was prepared in NB from 24 h old bacterial cultures on nutrient agar (Hi-media) at 37 ± 1 °C. The bacterial suspension was adjusted with sterile saline to a concentration of […]. The synthesized compounds and standard drug D-cycloserine were prepared by two fold serial dilutions to obtain the required concentrations. The tubes were incubated in BOD incubators at 37 ± 1 °C for bacteria. The MICs were recorded by visual observations after 24 h (for bacteria) of incubation.

[2] = test system: Escherichia coli SM1411 (an acrAB deficient derivative of 1411); test: as above; type: cell-based; conditions: 24 h, read-out: MIC100
Method: as §3, §4

[3] = test system: Staphylococcus aureus (NCIM-2901); test: as above; type: cell-based; conditions: for MIC: Staphylococcus aureus, NCIM2901, 24 h, read-out: MIC100, S. aureus NCIM-2901, average of three readings
Method: as §3, §4

A. flavus = test: In vitro antifungal activity (MIC100, CLSI/NCCLS); type: cell-based; conditions: Aspergillus flavus; A. fla.; average of three readings; read-out: MIC 100
Method: (§5) The newly synthesized derivatives 4(a–f) and 6(a–f) were screened for their in vitro antifungal activity against different yeast and filamentous fungal pathogens. Minimum inhibitory concentration (MIC100) values for in vitro antifungal activity were determined by the methods recommended by National Committee for Clinical Laboratory Standards (NCCLS). Miconazole was used as standard drug. Dimethyl sulfoxide (DMSO) was used as solvent control.
(§6) In vitro antifungal activity was determined as per CLSI (formerly, NCCLS) guidelines. […] The medium yeast nitrogen base was dissolved in phosphate buffer pH 7 and it was autoclaved at 110 °C for 10 min. With each set a growth control without the antifungal agent and solvent control DMSO were included. The fungal strains were freshly sub cultured on to Sabouraud dextrose agar (SDA) and incubated at 25 °C for 72 h. The fungal cells were suspended in sterile distilled water and diluted to get 10^5 cells/mL. Further, ten microlitres of the standardized suspension was inoculated onto the control plates and the media incorporated with the antifungal agents. The inoculated plates were incubated at 25 °C for 48 h. The readings were taken at the end of 48 h and 72 h. The MIC was the lowest concentration of drug preventing growth of macroscopically visible colonies on drug containing plates when there was visible growth on the drug free control plates.

Aspergillus fumigates = test: In vitro antifungal activity (MIC100, CLSI/NCCLS); type: cell-based; conditions: A. fum., average of three readings, read-out: MIC 100
Method: as §5, §6

Aspergillus niger = test: In vitro antifungal activity (MIC100, CLSI/NCCLS); type: cell-based; conditions: A. nig., average of three readings, read-out: MIC 100
Method: as §5, §6

Candida albicans = test: In vitro antifungal activity (MIC100, CLSI/NCCLS); type: cell-based; conditions: C. alb., average of three readings, read-out: MIC 100
Method: as §5, §6

Candida glabrata = test: In vitro antifungal activity (MIC100, CLSI/NCCLS); type: cell-based; conditions: Nakaseomyces glabratus; C. glab.; average of three readings; read-out: MIC 100
Method: as §5, §6

Cryptococcus neoformans = test: In vitro antifungal activity (MIC100, CLSI/NCCLS); type: cell-based; conditions: C. neo., average of three readings, read-out: MIC 100
Method: as §5, §6

Fusarium oxysporum = test: In vitro antifungal activity (MIC100, CLSI/NCCLS); type: cell-based; conditions: F. oxy., average of three readings, read-out: MIC 100
Method: as §5, §6

[4] = test system: HeLa (human cervical cancer cell line); test: In vitro cytotoxicity, Sulforhodamine B (SRB) assay; type: cell-based; conditions: up to 80 µg/mL
From the text: as §1, §2

Swiss albino mice = test: In vivo acute oral toxicity study and gross behavioral study (OECD guideline No. 425)
Method: The in vivo acute oral toxicity and gross behavioral study results of the newly synthesized compounds 6c and 6f are as listed in Table 12 [26].
Each group, consisting of six Swiss albino mice (18–22 gm weight, overnight fasted), were kept in colony cage at 25 ± 2 °C with 55% relative humidity and 12 h of light and dark cycle. A specified dose of 100, 250, 500, 750, 1000, 1500 and 2000 mg/kg body weight of mice was administered orally as a single dose. The acute toxic symptoms and the behavioral changes produced by the test compounds were observed continuously for 4 h periods at 8th, 12th and 24th h on set of toxic symptoms and the gross behavioral changes were also recorded. These animals were maintained for further 10 days with observation made daily. The in vivo acute oral toxicity study was carried out at animal house at the Y.B. Chavan College of Pharmacy, Aurangabad IAEC approval number CPCSEA/IAEC/P’col-52/2015-16/115 [26].

[5] = test system: ergosterol biosynthesis in Candida albicans (NCIM-3471); test: Ergosterol extraction and quantitation assay (UV sterol profile); type: cell-based; conditions: C. albicans NCIM3471; 6f 24 µg/mL, miconazole 25 µg/mL; 281.5 nm
Method: Changes in this absorption pattern are therefore indicative of interference in the synthetic pathway of ergosterol.
A single Candida albicans (NCIM-3471) colony from an overnight Sabouraud dextrose agar plate culture was used to inoculate 50 mL of Sabouraud dextrose broth for control and for various concentrations of the molecules. The cultures were incubated for 16 hours and harvested by centrifugation at 2700 rpm (856× g) for five min. The net weight of the cell pellet was determined. Three mL of 25% alcoholic potassium hydroxide solution was added to each pellet and vortex mixed for one min. Cell suspensions were transferred to sterile borosilicate glass screw-cap tubes and were incubated in an 85 °C water bath for one hour. Following incubation, the tubes were allowed to cool. Sterols were then extracted by addition of a mixture of 1 mL of sterile distilled water and 3 mL of n-heptane followed by vigorous vortex mixing for 3 min. The heptane layer was transferred to a clean borosilicate glass screw-cap tube and stored at −20 °C. Prior to analysis, 0.6 mL aliquot of sterol extract was diluted five fold in 100% ethanol and scanned spectrophotometrically between 240 nm and 300 nm with a spectrophotometer (UV-Visible Spectrophotometer 2100, Thermo Fischer Scientific, Waltham, MA, USA). The presence of ergosterol and the late sterol intermediate 24(28)-dehydroergosterol (DHE) in the extracted sample results in a characteristic four-peaked curve. The absence of detectable ergosterol in extracts was indicated by a flat line.
Sterols were extracted from cells and spectral profiles between 240 and 300 nm were determined.

Structure (SMILES)	GI50 ([1]; HeLa cells, SRB assay) [µg/mL]	GI50 ([1]; PC-3 cells) [µg/mL]	IC50 (DdlB from E.coli) [µM]	MIC (Escherichia coli 1411) [µg/mL]	MIC [2] [µg/mL]	MIC [3] [µg/mL]	MIC (A. flavus) [µg/mL]	MIC (Aspergillus fumigates) [µg/mL]	MIC (Aspergillus niger) [µg/mL]	MIC (Candida albicans) [µg/mL]	MIC (Candida glabrata) [µg/mL]	MIC (Cryptococcus neoformans) [µg/mL]	MIC (Fusarium oxysporum) [µg/mL]	cell inhibition [4]	No. of Deaths (Swiss albino mice; Swiss albino mice, single oral dose 100 to 2000 mg/kg)	lethal dose (Swiss albino mice; mice, oral, single dose, no mortality up to 2000 mg/kg)	MIC100 ([3]; S. aureus NCIM-2901, 24 h, average of three readings) [µg/mL]	melting point [°C]	ergosterol peak in UV sterol profile at the MIC value [5]
COc1cccc2c1C(=O)c1c(O)c3c(c(O)c1C2=O)C[C@@](O)(C(=O)CO)C[C@@H]3O[C@H]1C[C@H](N)[C@H](O)[C@H](C)O1 [Adriamycin, reference compound]	0.5 (≈ 0.92 µM)	0.5 (≈ 0.92 µM)																	
CC1=C(C(=O)NN)C(c2coc3ccc(F)cc3c2=O)NC(=O)N1 (stereo not drawn) [Compound 6c, 4-(6-Fluoro-4-oxo-4H-chromen-3-yl)-6-methyl-2-oxo-1,2,3,4-tetrahydropyrimidine-5-carbohydrazide]	> 80	> 80	106	14 (≈ 42.1 µM)	14 (≈ 42.1 µM)	32 (≈ 96.3 µM)	42 (≈ 126 µM)	60 (≈ 181 µM)	40 (≈ 120 µM)	52 (≈ 156 µM)	52 (≈ 156 µM)	40 (≈ 120 µM)	58 (≈ 175 µM)	cell inhibition did not occur	N	above 2000 mg/kg body weight			
CC1=C(C(=O)NN)C(c2coc3ccc(F)cc3c2=O)NC(=S)N1 (stereo not drawn) [Compound 6d, 4-(6-Fluoro-4-oxo-4H-chromen-3-yl)-6-methyl-2-thioxo-1,2,3,4-tetrahydropyrimidine-5-carbohydrazide]			111	16 (≈ 45.9 µM)	18 (≈ 51.7 µM)	32 (≈ 91.9 µM)	30 (≈ 86.1 µM)	52 (≈ 149 µM)	28 (≈ 80.4 µM)	44 (≈ 126 µM)	40 (≈ 115 µM)	28 (≈ 80.4 µM)	44 (≈ 126 µM)				40 (≈ 115 µM)	146 to 148	
COc1ccc2occ(C3NC(=O)NC(C)=C3C(=O)NN)c(=O)c2c1 (stereo not drawn) [Compound 6e, 4-(6-Methoxy-4-oxo-4H-chromen-3-yl)-6-methyl-2-oxo-1,2,3,4-tetrahydropyrimidine-5-carbohydrazide]			315	> 60	58 (≈ 168 µM)	156 (≈ 453 µM)	16 (≈ 46.5 µM)	32 (≈ 92.9 µM)	18 (≈ 52.3 µM)	28 (≈ 81.3 µM)	30 (≈ 87.1 µM)	16 (≈ 46.5 µM)	30 (≈ 87.1 µM)					208 to 210	
Clc1ccc(COC(Cn2ccnc2)c2ccc(Cl)cc2Cl)c(Cl)c1 (stereo not drawn) [Miconazole, reference compound]							12 (≈ 28.8 µM)	35 (≈ 84.1 µM)	12 (≈ 28.8 µM)	25 (≈ 60.1 µM)	25 (≈ 60.1 µM)	12 (≈ 28.8 µM)	25 (≈ 60.1 µM)						inhibition of ergosterol

Source: PMC6017654, “Ionic Liquid-Promoted Synthesis of Novel Chromone-Pyrimidine Coupled Derivatives, Antimicrobial Analysis, Enzyme Assay, Docking Study and Toxicity Study” (Molecules : A Journal of Synthetic Chemistry and Natural …, 2018)
